pIC50: −log10 of the molar value. Read-outs that look alike come from different tables or passages of the source.
Columns and labels:
[1] = Iron affinity, stepwise association constant log K1; assay type: physicochemical
Description: The strength of the association between a ligand and metal, in this case iron, can be termed iron affinity.
The affinity constant is conveniently expressed as the logarithm (log K1) and the larger the magnitude of this number, the stronger the association between the metal (iron ions in this case) and ligand.

Malassezia furfur = assay: Intrinsic anti-Malassezia potency, growth inhibition by optical density; assay type: cell-based; conditions: for independent anti-fungal effectiveness (in words): comment on Table 1 data; for pIC50: M. furfur in mDixon medium, overnight at 31°, OD 600 nm
Protocol: To measure the growth inhibition properties of test materials against Malassezia, we carried out the following protocol.
Starting cultures are prepared by incubating with shaking at 31°. Cells (5 ml of culture) are collected by centrifugation and suspended in 50 ml fresh mDixon medium. […] The plates are shaken vigorously on a Heidolph Titramax 100 overnight at 31°. To increase the humidity, water-soaked cotton batting is placed over the plates.
As a control, the optical density of untreated M. furfur is measured after overnight incubation. As another control, the optical density of the starting culture is measured. The difference between these optical densities represents the amount of growth of M. furfur.

[2] = cited from earlier work
M. furfur 7982 = assay: Fractional Inhibitor Concentration (FIC) of chelator in combination with ZPT; assay type: cell-based, Malassezia furfur; conditions: average of duplicate plates, 2 days at 33° C., ≦0.5 synergistic, >0.5-1.0 additive
Description: Fractional Inhibitor Concentration (FIC) is a conventional methodology for evaluating antimicrobial interactions. In an embodiment of the present invention, an FIC is used to determine combinatorial effects of two chemicals on anti-Malassezia activity in a tissue culture setting.
• 1. Each FIC assay is run in duplicate. • 2. Low levels of M. furfur 7982 cells are inoculated into each well of a 96 well plate. • 3. Chemical #1 (in our assays, this is always ZPT) is titrated (2× concentration reductions) from right to left across each row of the plate, starting at 12.5 ppm final concentration and ending at 0 ppm. • 4. […] Plates are incubated at 33° C., 60% RH for 2 days with agitation. • 6. Optical densities (OD's) are then determined using a spectrophotometer.
• 1. […] Lack of inhibition of growth is determined if the OD>0.6, and the well is labeled with a ‘+’. • 3. The lowest concentration value of chemical #1, both by itself and with the lowest concentration of chemical #1 which boosts chemical #2's potency, that inhibit growth are determined (see FIG. 1). • 4. Likewise, the lowest concentration of chemical #2, both by itself and with the lowest concentration of chemical #2 that boosts chemical #1's potency, that inhibit growth are determined (see FIG. 1). • 5. The FIC value for the duplicate plates is determined using the calculations below:
[formula] [formula] • 6. The average FIC value is then determined, and the combinatorial effect of the two chemicals is classified according to the chart below: […]

[3] = (e) interpolated from correlation between Cu2+ and Fe2+ data
[4] = (c) interpolated from correlation between Zn2+ and Fe2+ data
[5] = source (a) NIST Standard Reference Database 46
[6] = source (b) IUPAC Stability Constant Database
[7] = (d) interpolated from correlation between Fe3+ and Fe2+ data

C1CNCCNCCNCCNCCNCCN1 [1,4,7,10,13,16-Hexaazacyclooctadecane]
Iron Affinity, log K1 Fe2+, pH = 7.4 [1, 3]: 13.3

Cc1occc(=O)c1O [maltol]
Iron Affinity, log K1 Fe2+, pH = 7.4 [1, 4]: 6.4 | independent anti-fungal effectiveness (in words) (Malassezia furfur): too hydrophilic to be an effective anti-fungal material independently

O=C(O)CN(CCN(CC(=O)O)CC(=O)O)CC(=O)O [Ethylenediaminetetraacetic acid]
pIC50 (Malassezia furfur; Malassezia furfur): < 3.30 | independent anti-fungal effectiveness (in words) (Malassezia furfur): not to be effective

c1ccc(-c2cccc(-c3ccccn3)n2)nc1 [2,2′: 6′,2″-terpyridine]
Iron Affinity, log K1 Fe2+, pH = 7.4 [1, 4]: 5.0

O=C(O)CN(CC(=O)O)[C@@H]1CCCC[C@H]1N(CC(=O)O)CC(=O)O (relative stereo) [trans-1,2-Cyclohexylenedinitrilotetraacetic acid]
Iron Affinity, log K1 Fe2+, pH = 7.4 [2, 5]: 14.0 | pIC50 (Malassezia furfur): 3.30

Cc1ccc2ccc3ccc(C)nc3c2n1 [2,9-dimethyl-1,10-phenanthroline]
Iron Affinity, log K1 Fe2+, pH = 7.4 [1, 4]: 3.3

Oc1c(Cl)cc(Cl)c2cccnc12 [5,7-dichloro-8-hydroxyquinoline]
Iron Affinity, log K1 Fe2+, pH = 7.4 [2, 6]: 7.2

Cc1occc(=S)c1O [Thiomaltol]
FIC (Fractional Inhibitory Concentration) (M. furfur 7982): 0.8

Oc1c(I)cc(Cl)c2cccnc12 [5-Chloro-8-hydroxy-7-iodoquinoline]
Iron Affinity, log K1 Fe2+, pH = 7.4 [2, 6]: 7.0

CCCCCCCCOc1cccc(=O)n1O.NCCO [N-Hydroxy-6-octyloxypyridine-2(1H)one, ethanolamine salt]
Iron Affinity, log K1 Fe2+, pH = 7.4 [1, 7]: 5.4 | FIC (Fractional Inhibitory Concentration) (M. furfur 7982): 0.62 | pIC50 (Malassezia furfur): 4.26

Maltol, Zinc salt
FIC (Fractional Inhibitory Concentration) (M. furfur 7982): 0.1

c1cnc2c(c1)ccc1cccnc12 [1,10-Phenanthroline]
Iron Affinity, log K1 Fe2+, pH = 7.4 [2, 5]: 5.9

[O-]n1ccccc1=S.[O-]n1ccccc1=S.[Zn+2] [Zinc Pyrithione, zinc salt of 1-hydroxy-2-pyridinethione]
Iron Affinity, log K1 Fe2+, pH = 7.4 [1, 4]: 4.3

Benzohydroxamic acid, Zinc Salt
FIC (Fractional Inhibitory Concentration) (M. furfur 7982): 0.3

NCCc1ccccn1 [2-(2-aminoethyl)-pyridine]
Iron Affinity, log K1 Fe2+, pH = 7.4 [1, 7]: 5.2

O=C1c2cccc3cccc(c23)C(=O)N1O [N,N-Naphthaloylhydroxylamine]
FIC (Fractional Inhibitory Concentration) (M. furfur 7982): 0.8

S=C(N=Nc1ccccc1)NNc1ccccc1 [1,5-Diphenyl-1,2,4,5-tetraazapent-1-en-3-thione]
Iron Affinity, log K1 Fe2+, pH = 7.4 [2, 5]: 6.5

O=c1cc(CO)occ1O [kojic acid]
Iron Affinity, log K1 Fe2+, pH = 7.4 [1, 4]: 3.7

NCCC(=O)N[C@@H](Cc1c[nH]cn1)C(=O)O [beta-Alanyl-L-histidine]
Iron Affinity, log K1 Fe2+, pH = 7.4 [1, 4]: 1.3

CCC(NCCNC(CC)C(=O)O)C(=O)O (stereo not shown) [Ethylenediiminodi-2-butanoic acid]
Iron Affinity, log K1 Fe2+, pH = 7.4 [1, 4]: 6.3 | pIC50 (Malassezia furfur): < 3.30

CC(C)c1cccc(O)c(=O)c1 [1-Hydroxy-4-(1-methylethyl)cyclohepta-3,5,7-trien-2-one]
Iron Affinity, log K1 Fe2+, pH = 7.4 [1, 4]: 4.9 | pIC50 (Malassezia furfur; Malassezia furfur): 4.19

Oc1ccc2ccccc2c1N=Nc1nccs1 [1-(2-Thiazoylazo)-2-naphthol]
Iron Affinity, log K1 Fe2+, pH = 7.4 [1, 4]: 6.6 | pIC50 (Malassezia furfur): 3.60

Cc1c([O-])c(=O)ccn1C.Cc1c([O-])c(=O)ccn1C.[Zn+2] [1,2-Dimethyl-3-hydroxy-4-pyridone, Zinc salt]
FIC (Fractional Inhibitory Concentration) (M. furfur 7982): 0.5

O=C(O)CN1CCCN(CC(=O)O)CCN(CC(=O)O)CCCN(CC(=O)O)CC1 [1,4,8,11-Tetraazacyclotetradecane-N,N′,N″,N″′-tetraacetic acid]
Iron Affinity, log K1 Fe2+, pH = 7.4 [2, 5]: 9.9 | pIC50 (Malassezia furfur): < 3.30

Cc1c(O)c(=O)ccn1C [3-Hydroxy-1,2-dimethyl-4(1H)-pyridone]
Iron Affinity, log K1 Fe2+, pH = 7.4 [1, 4]: 3.9

CCCCCCCCOc1cccc(=O)n1[O-].CCCCCCCCOc1cccc(=O)n1[O-].[Zn+2] [N-Hydroxy-6-octyloxypyridine-2(1H)one, zinc salt]
FIC (Fractional Inhibitory Concentration) (M. furfur 7982): 0.7

c1ccc(CN(CCN(Cc2ccccn2)Cc2ccccn2)Cc2ccccn2)nc1 [N,N,N′,N-tetrakis(2-pyridylmethyl) ethylenediamine]
Iron Affinity, log K1 Fe2+, pH = 7.4 [2, 5]: 14.2 | pIC50 (Malassezia furfur): 4.15

Thiomaltol, Zinc salt
FIC (Fractional Inhibitory Concentration) (M. furfur 7982): 0.5

Oc1cccc2cccnc12 [8-hydroxyquinoline]
Iron Affinity, log K1 Fe2+, pH = 7.4 [1, 4]: 4.9

Oc1ccc(N=Nc2nccs2)c(O)c1 [4-(2-thiazolylazo)-resorcinol]
Iron Affinity, log K1 Fe2+, pH = 7.4 [2, 5]: 3.2

O=C(O)CN(CCO)CCO [N,N-Bis(2-hydroxyethyl)glycine]
Iron Affinity, log K1 Fe2+, pH = 7.4 [1, 4]: 3.6

O=C(O)c1ccccc1O [Salicylic acid]
Iron Affinity, log K1 Fe2+, pH = 7.4 [1, 3]: −3.0 | pIC50 (Malassezia furfur; Malassezia furfur): < 3.30
